A word on the EC50: it is the concentration that produces a half-maximal response.

Results on 23 compounds are retold here after patent US8530493B2, “Indolopyridines as Eg5 kinesin modulators” (4SC AG, priority 2006, dated 2013).

This assay relates to RKO p21 uninduced (proliferating) colon adenocarcinoma cells. The assay can be described thus: Alamar Blue cell viability assay, RKO p21 uninduced (proliferating). The assay is classed as cell-based. As to conditions: Homo sapiens, Table B3, anti-proliferative/cytotoxic activity, 72 hours, read-out: −log EC50 RKO p21 uninduced (proliferating) (converted). In short, it runs like this:
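Viability read by Alamar Blue fluorescence (ex 544, em 590 nm), normalised to untreated wells, after 72 h, 37° C, 5% CO2 compound exposure in triplicate. Cells were uninduced (no Ponasterone A), proliferating RKO colon carcinoma p27 or p21 subclones in DMEM with 10% FCS; values are −log EC50 (mol/l).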
For orientation: Alamar Blue is a resazurin reagent that responds to reducing activity.
Regarding `CCN(C)CCCN1C(=O)N2[C@H](c3cccc(O)c3)c3[nH]c4ccc(OC(F)F)cc4c3C[C@@]2(C)C1=O` (racemic) [Example 247, (3aSR,10RS)-6-(1,1-Difluoro-methoxy)-2-[3-(ethyl-methyl-amino)-propyl]-10-(3-hydroxy-phenyl)-3a-methyl-3a,4,9,10-tetrahydro-2,9,10a-triaza-cyclopenta[b]fluorene-,3-dione], the EC50 is no more than 39.8 nM. With `C[C@@]12Cc3c([nH]c4ccc(Br)cc34)[C@@H](c3cccc(O)c3)N1C(=O)N(CCCN1CC=CCC1)C2=O` (racemic) [Example 232, (3aSR,10RS)-6-Bromo-2-[3-(3,6-dihydro-2H-pyridin-1-yl)-propyl]-10-(3-hydroxy-phenyl)-3a-methyl-3a,4,9,10-tetrahydro-2,9,10a-triaza-cyclopenta[b]fluorene-1,3-dione], the EC50 was no more than 39.8 nM.

Turning to `CCN(CCOC)CCN1C(=O)N2[C@H](c3cccc(O)c3)c3[nH]c4ccc(OC(F)F)cc4c3C[C@@]2(C)C1=O` (racemic) [Example 289, (3aSR,10RS)-6-(1,1-Difluoro-methoxy)-2-{2-[ethyl-(2-methoxy-ethyl)-amino]-ethyl}-10-(3-hydroxy-phenyl)-3a-methyl-3a,4,9,10-tetrahydro-2,9,10a-triaza-cyclopenta[b]fluorene-1,3-dione], the EC50 is 39.8 to 251 nM. In the case of `COc1cc2c3c([nH]c2cc1F)[C@@H](c1cccc(O)c1)N1C(=O)N(CCN2CC=CC2)C(=O)[C@]1(C)C3` (racemic) [Example 262, (3aSR,10RS)-2-[2-(2,5-Dihydro-pyrrol-1-yl)-ethyl]-7-fluoro-10-(3-hydroxy-phenyl)-6-methoxy-3a-methyl-3a,4,9,10-tetrahydro-2,9,10a-triaza-cyclopenta[b]fluorene-1,3-dione] it was 39.8 to 251 nM. With `CCNCCCN1C(=O)N2[C@H](c3cccc(O)c3)c3[nH]c4ccc(OCC)cc4c3C[C@@]2(C)C1=O` (racemic) [Example 187, (3aSR,10RS)-6-Ethoxy-2-(3-ethylamino-propyl)-10-(3-hydroxy-phenyl)-3a-methyl-3a,4,9,10-tetrahydro-2,9,10a-triaza-cyclopenta[b]fluorene-1,3-dione] the figure was 39.8 to 251 nM; with `C[C@@]12Cc3c([nH]c4ccc(OC(F)F)cc34)[C@@H](c3cccc(O)c3)N1C(=O)N(CCN1CCCCCC1)C2=O` (racemic) [Example 282, (3aSR,10RS)-2-(2-Azepan-1-yl-ethyl)-6-(1,1-difluoro-methoxy)-10-(3-hydroxy-phenyl)-3a-methyl-3a,4,9,10-tetrahydro-2,9,10a-triaza-cyclopenta[b]fluorene-1,3-dione], 39.8 to 251 nM; with `C=CCNCCN1C(=O)N2[C@H](c3cccc(O)c3)c3[nH]c4ccc(OC(F)F)cc4c3C[C@@]2(C)C1=O` (racemic) [Example 274, (3aSR,10RS)-2-(2-Allylamino-ethyl)-6-(1,1-difluoro-methoxy)-10-(3-hydroxy-phenyl)-3a-methyl-3a,4,9,10-tetrahydro-2,9,10a-triaza-cyclopenta[b]fluorene-1,3-dione], no more than 39.8 nM.

For `C[C@@]12Cc3c([nH]c4ccc(OC(F)F)cc34)[C@@H](c3cccc(O)c3)N1C(=O)N(CCN1CCCCC1)C2=O` (racemic) [Example 280, (3aSR,10RS)-6-(1,1-Difluoro-methoxy)-10-(3-hydroxy-phenyl)-3a-methyl-2-(2-piperidin-1-yl-ethyl)-3a,4,9,10-tetrahydro-2,9,10a-triaza-cyclopenta[b]fluorene-1,3-dione], the EC50 was 39.8 to 251 nM. In the case of `COc1cc2c3c([nH]c2cc1F)[C@@H](c1cccc(O)c1)N1C(=O)N(CCCN2CCN(C)CC2)C(=O)[C@]1(C)C3` (racemic) [Example 325, (3aSR,10RS)-7-Fluoro-10-(3-hydroxy-phenyl)-6-methoxy-3a-methyl-2-[3-(4-methyl-piperazin-1-yl)-propyl]-3a,4,9,10-tetrahydro-2,9,10a-triaza-cyclopenta[b]fluorene-1,3-dione], the EC50 was 39.8 to 251 nM.

For the compound `C[C@@]12Cc3c([nH]c4cc(F)c(Cl)cc34)[C@@H](c3cccc(O)c3)N1C(=O)N(CCN1CCOCC1)C2=O` (racemic) [Example 353, (3aSR,10RS)-6-Chloro-7-fluoro-10-(3-hydroxy-phenyl)-3a-methyl-2-(2-morpholin-4-yl-ethyl)-3a,4,9,10-tetrahydro-2,9,10a-triaza-cyclopenta[b]fluorene-1,3-dione], the EC50 was 39.8 to 251 nM.

`C=CCNCCN1C(=O)N2[C@H](c3cccc(O)c3)c3[nH]c4cc(F)c(Cl)cc4c3C[C@@]2(C)C1=O` (racemic) [Example 346, (3aSR,10RS)-2-(2-Allylamino-ethyl)-6-chloro-7-fluoro-10-(3-hydroxy-phenyl)-3a-methyl-3a,4,9,10-tetrahydro-2,9,10a-triaza-cyclopenta[b]fluorene-1,3-dione]: the EC50 is no more than 39.8 nM. In the case of `CC(C)CNCCN1C(=O)N2[C@H](c3cccc(O)c3)c3[nH]c4ccc(OC(F)F)cc4c3C[C@@]2(C)C1=O` (racemic) [Example 269, (3aSR,10RS)-6-(1,1-Difluoro-methoxy)-10-(3-hydroxy-phenyl)-2-(2-isobutylamino-ethyl)-3a-methyl-3a,4,9,10-tetrahydro-2,9,10a-triaza-cyclopenta[b]fluorene-1,3-dione], the EC50 was no more than 39.8 nM. As for `COc1cc2c3c([nH]c2cc1F)[C@@H](c1cccc(O)c1)N1C(=O)N(CCNC2CCC2)C(=O)[C@]1(C)C3` (racemic) [Example 426, (3aSR,10RS)-2-(2-Cyclobutylamino-ethyl)-7-fluoro-10-(3-hydroxy-phenyl)-6-methoxy-3a-methyl-3a,4,9,10-tetrahydro-2,9,10a-triaza-cyclopenta[b]fluorene-1,3-dione], the EC50 is no more than 39.8 nM. With `C[C@@]12Cc3c([nH]c4cc(F)c(Cl)cc34)[C@@H](c3cccc(O)c3)N1C(=O)N(CCCNC1CCC1)C2=O` (racemic) [Example 463, (3aSR,10RS)-6-Chloro-2-(3-cyclobutylamino-propyl)-7-fluoro-10-(3-hydroxy-phenyl)-3a-methyl-3a,4,9,10-tetrahydro-2,9,10a-triaza-cyclopenta[b]fluorene-1,3-dione] the figure was 39.8 to 251 nM; with `CCNCCCN1C(=O)N2[C@H](c3cccc(O)c3)c3[nH]c4cc(F)c(Cl)cc4c3C[C@@]2(C)C1=O` (racemic) [Example 457, (3aSR,10RS)-6-Chloro-2-(3-ethylamino-propyl)-7-fluoro-10-(3-hydroxy-phenyl)-3a-methyl-3a,4,9,10-tetrahydro-2,9,10a-triaza-cyclopenta[b]fluorene-1,3-dione], 39.8 to 251 nM.

Regarding `COc1cc2c3c([nH]c2cc1F)[C@@H](c1cccc(O)c1)N1C(=O)N(CCNC(C)C)C(=O)[C@]1(C)C3` (racemic) [Example 250, (3aSR,10RS)-7-Fluoro-10-(3-hydroxy-phenyl)-2-(2-isopropylamino-ethyl)-6-methoxy-3a-methyl-3a,4,9,10-tetrahydro-2,9,10a-triaza-cyclopenta[b]fluorene-1,3-dione], the EC50 is no more than 39.8 nM. As for `CCN(CCO)CCCN1C(=O)N2[C@H](c3cccc(O)c3)c3[nH]c4cc(F)c(OC)cc4c3C[C@@]2(C)C1=O` (racemic) [Example 315, (3aSR,10RS)-2-{3-[Ethyl-(2-hydroxy-ethyl)-amino]-propyl}-7-fluoro-10-(3-hydroxy-phenyl)-6-methoxy-3a-methyl-3a,4,9,10-tetrahydro-2,9,10a-triaza-cyclopenta[b]fluorene-1,3-dione], the EC50 was 39.8 to 251 nM. On to `CCN(C)CCCN1C(=O)N2[C@H](c3cccc(O)c3)c3[nH]c4ccc(OC)cc4c3C[C@@]2(C)C1=O` [Example 541, (3aS,10R)-2-[3-(Ethyl-methyl-amino)-propyl]-10-(3-hydroxy-phenyl)-6-methoxy-3a-methyl-3a,4,9,10-tetrahydro-2,9,10a-triaza-cyclopenta[b]fluorene-1,3-dione], for which the EC50 is no more than 39.8 nM.

As for `CN(C)CCCN1C(=O)N2[C@H](c3cccc(O)c3)c3[nH]c4ccc(Br)cc4c3C[C@@]2(C)C1=O` (racemic) [Example 230, (3aSR,10RS)-6-Bromo-2-(3-dimethylamino-propyl)-10-(3-hydroyx-phenyl)-3a-methyl-3a,4,9,10-tetrahydro-2,9,10a-triaza-cyclopenta[b]fluorene-1,3-dione], the EC50 is no more than 39.8 nM. On to `CN(CCO)CCN1C(=O)N2[C@H](c3cccc(O)c3)c3[nH]c4ccc(OC(F)F)cc4c3C[C@@]2(C)C1=O` (racemic) [Example 288, (3aSR,10RS)-6-(1,1-Difluoro-methoxy)-2-{2-[(2-hydroxy-ethyl)-methyl-amino]-ethyl}-10-(3-hydroxy-phenyl)-3a-methyl-3a,4,9,10-tetrahydro-2,9,10a-triaza-cyclopenta[b]fluorene-1,3-dione], for which the EC50 was 39.8 to 251 nM. With `C[C@@]12Cc3c([nH]c4cc(F)c(Cl)cc34)[C@@H](c3cccc(O)c3)N1C(=O)N(CCN1CCCCCC1)C2=O` (racemic) [Example 361, (3aSR,10RS)-2-(2-Azepan-1-yl-ethyl)-6-chloro-7-fluoro-10-(3-hydroxy-phenyl)-3a-methyl-3a,4,9,10-tetrahydro-2,9,10a-triaza-cyclopenta[b]fluorene-1,3-dione], the EC50 is 39.8 to 251 nM. Regarding `CCOc1ccc2[nH]c3c(c2c1)C[C@@]1(C)C(=O)N(CCCN2CCN(C)CC2)C(=O)N1[C@@H]3c1cccc(O)c1` (racemic) [Example 229, (3aSR,10RS)-6-Ethoxy-10-(3-hydroxy-phenyl)-3a-methyl-2-[3-(4-methyl-piperazin-1-yl)-propyl]-3a,4,9,10-tetrahydro-2,9,10a-triaza-cyclopenta[b]fluorene-1,3-dione], the EC50 is 39.8 to 251 nM. In the case of `COc1cc2c3c([nH]c2cc1F)[C@@H](c1cccc(O)c1)N1C(=O)N(CCCN2CCCCC2)C(=O)[C@]1(C)C3` (racemic) [Example 324, (3aSR,10RS)-7-Fluoro-10-(3-hydroxy-phenyl)-6-methoxy-3a-methyl-2-(3-piperidin-1-yl-propyl)-3a,4,9,10-tetrahydro-2,9,10a-triaza-cyclopenta[b]fluorene-1,3-dione] it was 39.8 to 251 nM.
